{
  "source": "patent US20080214508A1",
  "about": "“Methods of Administering Water-Soluble Prodrugs of Propofol” (MGI GP, INC., priority 2004, published 2008)",
  "key": {"[1]": {"conditions": "anesthetic induction doses; cited from earlier work"}, "human subjects": {"tested_on": "human subjects", "conditions": "intravenous infusions; cited from earlier work"}, "[2]": {"experiment": "Plasma propofol pharmacokinetics in Beagle dogs after intravenous, subcutaneous or rectal prodrug", "type": "in vivo", "method": "Upon administration, the test prodrug is converted in the body into propofol, its pharmacologically active metabolite. The pharmacokinetic profile, i.e. the blood plasma concentration of propofol derived from the test prodrug, was assessed in a separate experiment. Three male Beagle dogs (8.7-10.9 kg) received intravenous, subcutaneous, or rectal doses of the prodrug (see Tab. 1, below). Blood samples were taken at pre-dose, 2 (only for intravenous and subcutaneous), 5, 15, 30 minutes, 1, 1.5, 2, 3, 4, 6, and 8 hrs after administration of the test prodrug. Blood samples were centrifuged to obtain plasma and stored frozen until analysis. The outcome of this experiment is depicted in the following Table I: […]"}, "[3]": {"conditions": "rats, intravenous infusion over 10 minutes, 5-40 mg/kg"}, "[4]": {"conditions": "Beagle dog 46, rectal, 16.8 mg/kg prodrug, first suppository expelled, second given, nominal dose used"}, "[5]": {"conditions": "Beagle dog 47, rectal, 15.7 mg/kg prodrug"}, "[6]": {"conditions": "Beagle dog 48, rectal, 18.4 mg/kg prodrug"}, "[7]": {"conditions": "Beagle dogs, i.v., 16 mg/kg prodrug, average of 3 dogs"}, "[8]": {"conditions": "Beagle dogs, i.v., 16 mg/kg prodrug, individual dogs 46, 47, 48, disodium salt, 16 mg/kg"}, "[9]": {"conditions": "Beagle dogs, rectal, 15.7-18.4 mg/kg prodrug, average of 3 dogs"}, "[10]": {"conditions": "Beagle dogs, subcut., 16 mg/kg prodrug, average of 3 dogs"}, "[11]": {"conditions": "Beagle dogs, subcut., 16 mg/kg prodrug, individual dogs 46, 47, 48, disodium salt, 16 mg/kg"}},
  "note": "“And” between values parts separate entries of the source, which are not always exact repeats. Equal entries are not always repeated. “Also recorded” adds a separate entry of the source.",
  "data": [
    {"smiles": "CC(C)c1cccc(C(C)C)c1O", "note": "[propofol, 2,6-diisopropylphenol]", "values": [
      {"measurement": "patients with respiratory consequences, including reduction in tidal volume and apnea", "setting": "[1]", "value": "up to 83%"},
      {"measurement": "sedative effect", "setting": "Sprague-Dawley rats; rats, subcutaneous, 80 mg/kg, commercially available liquid emulsion formulation", "value": "only very mild or no sedative effects; also recorded: none or only very mild sedation"}
    ]},
    {"smiles": "CC(C)c1cccc(C(C)C)c1OCOP(=O)([O-])[O-].[Na+].[Na+]", "note": "[O-phosphonooxymethyl propofol disodium salt]", "values": [
      {"measurement": "potency of plasma propofol in suppressing EEG activity and causing a hypnotic effect, versus plasma propofol from infusions of propofol itself", "setting": "human subjects", "value": "significantly more potent"},
      {"measurement": "duration of effects relative to subcutaneous administration", "setting": "Sprague-Dawley rats; [3]", "value": "shorter duration compared to subcutaneous administration"},
      {"measurement": "onset of sedated behavior relative to subcutaneous injection", "setting": "Sprague-Dawley rats; [3]", "value": "even more rapidly than after subcutaneous-injection"},
      {"measurement": "onset of sedated behavior after dosing", "setting": "Sprague-Dawley rats; rats, single subcutaneous injection, 50-300 mg/kg", "value": "5 to 10", "unit": "min"},
      {"measurement": "duration of sedation", "setting": "Sprague-Dawley rats; rats, subcutaneous, 50 mg/kg", "value": "1 to 1.5", "unit": "h"},
      {"measurement": "sedative effect compared to vehicle", "setting": "Sprague-Dawley rats; rats, subcutaneous, 50 mg/kg", "value": "mild to moderate sedation"},
      {"measurement": "behavioral effect following sedation", "setting": "Sprague-Dawley rats; rats, subcutaneous, 100, 200 and 300 mg/kg dose groups", "value": "loss of consciousness"},
      {"measurement": "duration of loss of consciousness", "setting": "Sprague-Dawley rats; rats, subcutaneous, two highest dose groups (200 and 300 mg/kg)", "value": "more than two hours"},
      {"measurement": "time after administration until plateau effect is reached", "setting": "Sprague-Dawley rats; subcutaneous administration", "value": "10 to 15", "unit": "min"},
      {"measurement": "duration for which plateau effect is maintained", "setting": "Sprague-Dawley rats; subcutaneous administration, depending on dose", "value": "up to about thirty minutes to two hours or longer"},
      {"measurement": "AUCLast of plasma propofol", "setting": "[2]; [4]", "value": 471.4, "unit": "ng·h/mL"},
      {"measurement": "Cmax of plasma propofol", "setting": "[2]; [4]", "value": 220, "unit": "ng/mL"},
      {"measurement": "Tmax of plasma propofol", "setting": "[2]; [4]", "value": 60, "unit": "min"},
      {"measurement": "AUCLast of plasma propofol", "setting": "[2]; [5]", "value": 204.5, "unit": "ng·h/mL"},
      {"measurement": "Cmax of plasma propofol", "setting": "[2]; [5]", "value": 170, "unit": "ng/mL"},
      {"measurement": "Tmax of plasma propofol", "setting": "[2]; [5]", "value": 15, "unit": "min"},
      {"measurement": "AUCLast of plasma propofol", "setting": "[2]; [6]", "value": 46.7, "unit": "ng·h/mL"},
      {"measurement": "Cmax of plasma propofol", "setting": "[2]; [6]", "value": 90, "unit": "ng/mL"},
      {"measurement": "Tmax of plasma propofol", "setting": "[2]; [6]", "value": 15, "unit": "min"},
      {"measurement": "AUCLast of plasma propofol", "setting": "[2]; [7]", "value": "1728 ± 256.0", "unit": "ng·h/mL"},
      {"measurement": "Cmax of plasma propofol", "setting": "[2]; [7]", "value": "3840 ± 1190", "unit": "ng/mL"},
      {"measurement": "Tmax of plasma propofol", "setting": "[2]; [7]", "value": 1.8, "unit": "min"},
      {"measurement": "Tmax of plasma propofol", "setting": "[2]; Beagle dogs, i.v., 16 mg/kg prodrug, individual dogs 46, 47, 48", "value": 1.8, "unit": "min"},
      {"measurement": "AUCLast of plasma propofol", "setting": "[2]; [8]", "value": "1776 ng·h/mL and 1956 ng·h/mL and 1451 ng·h/mL"},
      {"measurement": "Cmax of plasma propofol", "setting": "[2]; [8]", "value": "2570 ng/mL and 4930 ng/mL and 4010 ng/mL"},
      {"measurement": "AUCLast of plasma propofol", "setting": "[2]; [9]", "value": "240.9 ± 214.7", "unit": "ng·h/mL"},
      {"measurement": "Cmax of plasma propofol", "setting": "[2]; [9]", "value": "160 ± 60", "unit": "ng/mL"},
      {"measurement": "Tmax of plasma propofol", "setting": "[2]; [9]", "value": "30 ± 25.8", "unit": "min"},
      {"measurement": "AUCLast of plasma propofol", "setting": "[2]; [10]", "value": "1322 ± 557.7", "unit": "ng·h/mL"},
      {"measurement": "Cmax of plasma propofol", "setting": "[2]; [10]", "value": "390 ± 90", "unit": "ng/mL"},
      {"measurement": "Tmax of plasma propofol", "setting": "[2]; [10]", "value": "60 ± 30", "unit": "min"},
      {"measurement": "AUCLast of plasma propofol", "setting": "[2]; [11]", "value": "1781 ng·h/mL and 1484 ng·h/mL and 701.6 ng·h/mL"},
      {"measurement": "Cmax of plasma propofol", "setting": "[2]; [11]", "value": "460 ng/mL and 420 ng/mL and 290 ng/mL"},
      {"measurement": "Tmax of plasma propofol", "setting": "[2]; [11]", "value": "90 min and 60 min and 30 min"}
    ]}
  ]
}
